The text below walks through data of patent US11345681B1, “Inhibitors of fibroblast growth factor receptor kinases” (Kinnate Biopharma Inc., priority 2020, dated 2022).

The term IC50 denotes the concentration needed to halve the response being measured.

The test has as its target Wild type FGFR2 (Homo sapiens (Human), UniProt P21802). Kind of test: FGFR2 kinase assay (fluorescence-based microfluidic mobility shift assay). The test is classed as biochemical. Conditions: wild type FGFR2 0.06 nM, 100 μM ATP, 80 minutes at room temperature; class symbols.

Chain of Wild type FGFR2 (P21802 22-821): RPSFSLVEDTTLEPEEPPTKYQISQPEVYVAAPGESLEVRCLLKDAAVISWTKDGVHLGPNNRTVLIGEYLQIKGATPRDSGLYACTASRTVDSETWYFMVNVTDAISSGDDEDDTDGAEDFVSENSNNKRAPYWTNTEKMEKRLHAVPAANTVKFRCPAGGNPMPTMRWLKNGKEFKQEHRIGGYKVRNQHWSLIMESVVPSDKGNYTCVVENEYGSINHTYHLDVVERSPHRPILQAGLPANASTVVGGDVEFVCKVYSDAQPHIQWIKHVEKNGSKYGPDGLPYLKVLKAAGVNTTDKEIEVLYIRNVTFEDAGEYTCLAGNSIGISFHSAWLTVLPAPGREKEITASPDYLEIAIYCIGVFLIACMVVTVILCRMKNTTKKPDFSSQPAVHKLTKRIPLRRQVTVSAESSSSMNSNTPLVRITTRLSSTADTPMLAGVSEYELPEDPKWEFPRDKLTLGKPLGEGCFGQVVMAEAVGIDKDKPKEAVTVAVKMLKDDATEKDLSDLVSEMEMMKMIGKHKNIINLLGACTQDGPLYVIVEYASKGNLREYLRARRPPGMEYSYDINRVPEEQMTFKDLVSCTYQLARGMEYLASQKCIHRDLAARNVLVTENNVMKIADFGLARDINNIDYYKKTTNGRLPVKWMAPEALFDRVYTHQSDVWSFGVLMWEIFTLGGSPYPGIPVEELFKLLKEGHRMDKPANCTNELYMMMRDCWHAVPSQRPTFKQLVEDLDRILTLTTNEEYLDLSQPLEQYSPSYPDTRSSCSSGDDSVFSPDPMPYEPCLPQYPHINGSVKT

For `C=CC(=O)N1C[C@@H](n2nc(C#Cc3cc4nc(C)n(C)c4cc3Cl)c(C(N)=O)c2NC)C[C@@H]1COC` [Example 82, 3-[2-(6-Chloro-1,2-dimethyl-1,3-benzodiazol-5-yl)ethynyl]-1-[(3S,5R)-5-(methoxymethyl)-1-(prop-2-enoyl)pyrrolidin-3-yl]-5-(methylamino)pyrazole-4-carboxamide], the IC50 is at most 100 nM. In the case of `C=CC(=O)N1CC[C@H](n2nc(C#Cc3c(F)cc4c(ncn4CC)c3F)c(C(N)=O)c2NCCO)C1` [Example 123, 3-[2-(1-Ethyl-4,6-difluoro-1,3-benzodiazol-5-yl)ethynyl]-5-[(2-hydroxyethyl)amino]-1-[(3S)-1-(prop-2-enoyl)pyrrolidin-3-yl]pyrazole-4-carboxamide] it was at most 100 nM; in that of `C=CC(=O)N1C[C@@H](n2nc(C#Cc3cc4ncn(C)c4c(F)c3Cl)c(C(N)=O)c2NC)C[C@@H]1COC` [Example 113, 3-[2-(6-chloro-7-fluoro-1-methyl-1,3-benzodiazol-5-yl)ethynyl]-1-[(3S,5R)-5-(methoxymethyl)-1-(prop-2-enoyl)pyrrolidin-3-yl]-5-(methylamino)pyrazole-4-carboxamide], at most 100 nM; in that of `C=CC(=O)N1C[C@@H](n2nc(C#Cc3ccc4ocnc4c3)c(C(N)=O)c2NC)C[C@@H]1COC` [Example 108, 3-[2-(1,3-Benzoxazol-5-yl)ethynyl]-1-[(3S,5R)-5-(methoxymethyl)-1-(prop-2-enoyl)pyrrolidin-3-yl]-5-(methylamino)pyrazole-4-carboxamide], at most 100 nM.

As for `C=CC(=O)N1C[C@@H](n2nc(C#Cc3ccc4nc(C)cnc4c3)c(C(N)=O)c2NC)C[C@@H]1COC` [Example 69, 1-((3S,5R)-1-Acryloyl-5-(methoxymethyl)pyrrolidin-3-yl)-5-(methylamino)-3-((2-methylquinoxalin-6-yl)ethynyl)-1H-pyrazole-4-carboxamide], the IC50 is at most 100 nM. In the case of `C=CC(=O)N1C[C@@H](n2nc(C#Cc3cc4ncn(CC)c4cc3Cl)c(C(N)=O)c2NC)C[C@@H]1COC` [Example 89, 3-[2-(6-Chloro-1-ethyl-1,3-benzodiazol-5-yl)ethynyl]-1-[(3S,5R)-5-(methoxymethyl)-1-(prop-2-enoyl)pyrrolidin-3-yl]-5-(methylamino)pyrazole-4-carboxamide] it was at most 100 nM; in that of `C=CC(=O)N1CC[C@H](n2nc(C#Cc3c(F)cc4c(ncn4CC)c3F)c(C(N)=O)c2NCCCN2CCOCC2)C1` [Example 120, 3-[2-(1-ethyl-4,6-difluoro-1,3-benzodiazol-5-yl)ethynyl]-5-[[3-(morpholin-4-yl)propyl]amino]-1-[(3S)-1-(prop-2-enoyl)pyrrolidin-3-yl]pyrazole-4-carboxamide], at most 100 nM. The same measure for `C=CC(=O)N1C[C@@H](n2nc(C#Cc3ccc4ccc(C)nc4c3)c(C(N)=O)c2NC)C[C@@H]1COC` [Example 83, 1-[(3S,5R)-5-(Methoxymethyl)-1-(prop-2-enoyl)pyrrolidin-3-yl]-5-(methylamino)-3-[2-(2-methylquinolin-7-yl)ethynyl]pyrazole-4-carboxamide]: at most 100 nM; for `C=CC(=O)N1C[C@@H](n2nc(C#Cc3cc4nc(C)n(C5CC5)c4cc3F)c(C(N)=O)c2NC)C[C@@H]1COC` [Example 150, 3-[2-(1-Cyclopropyl-6-fluoro-2-methyl-1,3-benzodiazol-5-yl)ethynyl]-1-[(3S,5R)-5-(methoxymethyl)-1-(prop-2-enoyl)pyrrolidin-3-yl]-5-(methylamino)pyrazole-4-carboxamide]: at most 100 nM; for `C=CC(=O)N1C[C@@H](n2nc(C#Cc3ccc4[nH]c(C5CC5)nc4c3)c(C(N)=O)c2NC)C[C@@H]1COC` [Example 42, 3-[2-(2-cyclopropyl-1H-1,3-benzodiazol-5-yl)ethynyl]-1-[(3S,5R)-5-(methoxymethyl)-1-(prop-2-enoyl)pyrrolidin-3-yl]-5-(methylamino)pyrazole-4-carboxamide]: at most 100 nM.

As for `C=CC(=O)N1C[C@@H](n2nc(C#Cc3ccc4nccnc4c3)c(C(N)=O)c2NC)C[C@@H]1COC` [Example 64, 1-[(3S,5R)-5-(Methoxymethyl)-1-(prop-2-enoyl)pyrrolidin-3-yl]-5-(methylamino)-3-[2-(quinoxalin-6-yl)ethynyl] pyrazole-4-carboxamide], the IC50 was at most 100 nM. In the case of `C=CC(=O)N1C[C@@H](n2nc(C#Cc3cc4ncn(C5CC5)c4cc3F)c(C(N)=O)c2N)C[C@@H]1[C@H](C)O` [Example 241, 5-Amino-3-[2-(1-cyclopropyl-6-fluoro-1,3-benzodiazol-5-yl)ethynyl]-1-[(3S,5R)-5-[(1S)-1-hydroxyethyl]-1-(prop-2-enoyl)pyrrolidin-3-yl]pyrazole-4-carboxamide] it was at most 100 nM; in that of `C=CC(=O)N1C[C@@H](n2nc(C#Cc3ccc4ncn(C)c4c3F)c(C(N)=O)c2NC)C[C@@H]1COC` [Example 41, 3-[2-(4-fluoro-^-1-methyl-1,3-benzodiazol-5-yl)ethynyl]-1-[(3S,5R)-5-(methoxymethyl)-1-(prop-2-enoyl)pyrrolidin-3-yl]-(methylamino)pyrazole-4-carboxamide], 100 to 1000 nM; in that of `C=CC(=O)N1C[C@@H](n2nc(C#Cc3cc4ncn(C5CC5)c4cc3F)c(C(N)=O)c2NC)C[C@@H]1C(F)F` [Example 170, 3-[2-(1-Cyclopropyl-6-fluoro-1,3-benzodiazol-5-yl)ethynyl]-1-[(3S,5R)-5-(difluoromethyl)-1-(prop-2-enoyl)pyrrolidin-3-yl]-5-(methylamino)pyrazole-4-carboxamide], at most 100 nM. As to `C=CC(=O)N1C[C@@H](n2nc(C#Cc3cc4ncn(C5CC5)c4cc3F)c(C(N)=O)c2N)C[C@@H]1[C@@H](C)O` [Example 240, 5-Amino-3-[2-(1-cyclopropyl-6-fluoro-1,3-benzodiazol-5-yl)ethynyl]-1-[(3S,5R)-5-[(1R)-1-hydroxyethyl]-1-(prop-2-enoyl)pyrrolidin-3-yl]pyrazole-4-carboxamide], the half-maximal inhibitory concentration (IC50) was at most 100 nM.

Take `C=CC(=O)N1C[C@@H](n2nc(C#Cc3cc4nc(C)n(CC)c4cn3)c(C(N)=O)c2NC)C[C@@H]1COC` [Example 48, 3-(2-[3-Ethyl-2-methylimidazo[4,5-c]pyridin-6-yl]ethynyl)-1-[(3S,5R)-5-(methoxymethyl)-1-(prop-2-enoyl)pyrrolidin-3-yl]-5-(methylamino)pyrazole-4-carboxamide]: the IC50 is 100 to 1000 nM. The same measure for `C=CC(=O)N1C[C@@H](n2nc(C#Cc3c(Cl)cc4c(nc(C)n4C)c3F)c(C(N)=O)c2NC)C[C@@H]1COC` [Example 133, 3-[2-(6-Chloro-4-fluoro-1,2-dimethyl-1,3-benzodiazol-5-yl)ethynyl]-1-[(3S,5R)-5-(methoxymethyl)-1-(prop-2-enoyl)pyrrolidin-3-yl]-5-(methylamino)pyrazole-4-carboxamide]: at most 100 nM. The same measure for `C=CC(=O)N1C[C@@H](n2nc(C#Cc3cc4nncc(C)c4cc3Cl)c(C(N)=O)c2NC)C[C@@H]1COC` [Example 268, 1-((3S,5R)-1-acryloyl-5-(methoxymethyl)pyrrolidin-3-yl)-3-((6-chloro-4-methylcinnolin-7-yl)ethynyl)-5-(methylamino)-1H-pyrazole-4-carboxamide]: at most 100 nM.
